The values that follow come from patent EP0802184B1, “N-Benzyl-2-phenylindoles as estrogenic agents” (Wyeth, priority 1996, dated 1997).

Assay [1] concerns the target T1, estrogen receptor (Homo sapiens, UniProt P03372).
T1 sequence (P03372 1-595): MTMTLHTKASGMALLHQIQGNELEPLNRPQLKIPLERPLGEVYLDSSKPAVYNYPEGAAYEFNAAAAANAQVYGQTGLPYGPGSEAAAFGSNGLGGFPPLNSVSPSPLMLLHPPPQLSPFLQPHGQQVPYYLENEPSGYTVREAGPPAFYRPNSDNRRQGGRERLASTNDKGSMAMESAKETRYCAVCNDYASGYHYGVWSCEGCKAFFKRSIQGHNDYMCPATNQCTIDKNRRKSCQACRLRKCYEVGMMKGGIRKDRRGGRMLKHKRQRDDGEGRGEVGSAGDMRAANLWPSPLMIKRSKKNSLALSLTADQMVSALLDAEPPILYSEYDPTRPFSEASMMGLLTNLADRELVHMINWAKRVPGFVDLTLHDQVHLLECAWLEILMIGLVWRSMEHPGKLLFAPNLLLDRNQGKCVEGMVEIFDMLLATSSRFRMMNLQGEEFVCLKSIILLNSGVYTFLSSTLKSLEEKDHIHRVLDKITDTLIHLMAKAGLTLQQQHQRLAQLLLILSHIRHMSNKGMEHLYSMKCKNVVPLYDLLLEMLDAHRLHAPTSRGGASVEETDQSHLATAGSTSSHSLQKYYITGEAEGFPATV
In words: In vitro estrogen receptor binding assay (competition with [3H]-17β-estradiol). Also noted: expressed in transfected cells; host or cells: CHO cells (ribosome-free cytosol). The conditions noted are these: relative to 17β-estradiol=100; cytosol of CHO cells overexpressing the estrogen receptor. Here is the method: CHO cells overexpressing the estrogen receptor were grown in 150 mm^2 dishes in DMEM + 10% dextran coated charcoal, stripped fetal bovine serum. The plates were washed twice with PBS and once with 10mM Tris-HCl, pH 7.4, 1mM EDTA. Cells were harvested by scraping the surface and then the cell suspension was placed on ice. Cells were disrupted with a hand-held motorized tissue grinder using two, 10-second bursts. The crude preparation was centrifuged at 12,000g for 20 minutes followed by a 60 minute spin at 100,000g to produce a ribosome free cytosol. The cytosol was then frozen and stored at -80°C. Protein concentration of the cytosol was estimated using the BCA assay with reference standard protein.
100uG/100uL of the receptor preparation was aliquoted per well. […] The plate was incubated at room temperature for 2.5 h. At the end of this incubation period 150 uL of ice-cold dextran coated charcoal (5% activated charcoal coated with 0.05% 69K dextran) was added to each well and the plate was immediately centrifuged at 99g for 5 minutes at 4°C. 200 uL of the supernatant solution was then removed for scintillation counting. Samples were counted to 2% or 10 minutes, whichever occurs first. […] Also, wells containing radioactivity but no cytosol were processed with charcoal to estimate unremovable DPM of [^3H]
Counts per minute (CPM) of radioactivity were automatically converted to disintegrated per minute (DPM) by the Beckman LS 7500 Scintillation Counter using a set of quenched standards to generate a H# for each sample.
For the generation of IC50 curves, % binding is plotted vs compound. […] For a description of these methods, see Hulme, E.C., ed. 1992. Receptor-Ligand Interactions: A Practical Approach. IRL Press, New York.(see especially chapter 8).

Assay [2] concerns the target T1, estrogen receptor. In words: 2X VIT ERE Transfection Assay (Infection Luciferase Assay). To be noted: 24 h; for % Activation with 1 nM 17β-estradiol: 1 uM compound + 1 nM 17β-estradiol (test for estrogen antagonism); for % Activation: compound alone (1 uM), compared to 17β-estradiol. It counts as cell-based. Here is the method: Chinese Hamster Ovary cells (CHO) which had been stably transfected with the human estrogen receptor were maintained in DMEM + 10% fetal bovine serum (FBS). 48h prior to treatment the growth medium was replaced with DMEM lacking phenol red + 10% dextran coated charcoal stripped FBS (treatment medium). Cells were plated at a density of 5000 cells/well in 96-well plates containing 200 µL of medium/well.
Reporter DNA (Promega plasmid pGL2 containing two tandem copies of the vitellogenin ERE in front of the minimal thymidine kinase promoter driving the luciferase gene) was combined with the B-galactosidase expression plasmid pCH110 (Pharmacia) and carrier DNA (pTZ18U) in the following ratio: • 10uG of reporter DNA • 5uG of pCH110DNA • 5 uG of pTZ18U • 20 uG of DNA/1 mL of transfection solution
20 uL of this mixture was added to each well of cells and remained on the cells for 16 h. […] Each treatment condition was performed on 8 wells (n=8) which were incubated for 24 h prior to the luciferase assay.
After removing the PBS, 25 uL of Promega lysis buffer was added to each well and allowed to stand at room temperature for 15 min, followed by 15 min at -80°C and 15 min at 37°C. 20 uL of lysate was transferred to an opaque 96 well plate for luciferase activity evaluation and the remaining lysate (5 uL) was used for the B-galactosidase activity evaluation (normalize transfection). The luciferan substrate (Promega) was added in 100 uL aliquots to each well automatically by the luminometer and the light produced (relative light units) was read 10 seconds after addition.
To the remaining 5 uL of lysate 45 uL of PBS was added. Then 50 uL of Promega B-galactosidase 2X assay buffer was added, mixed well and incubated at 37°C for 1 hour. A plate containing a standard curve (0.1 to 1.5 milliunits in triplicate) was set up for each experimental run. The plates were analyzed on a Molecular Devices spectrophotometric plate reader at 410 nm. The optical densities for the unknown were converted to milliunits of activity by mathematical extrapolation from the standard curve.
The luciferase data was generated as relative light units (RLUs) accumulated during a 10 second measurement and automatically transferred to a JMP (SAS Inc) file where background RLUs were subtracted. The B-galactosidase values were automatically imported into the file and these values were divided into the RLUs to normalize the data. The mean and standard deviations were determined from a n=8 for each treatment. […] These techniques are described by Tzukerman, M.T., Esty, A., Santiso-Mere, D., Danielian, P., Parker, M.G., Stein, R.B., Pike, J.W. and McDonnel, D.P. (1994). Human estrogen receptor transactivational capacity was determined by both cellular and promoter context and mediated by two functionally distinct intramolecular regions (see Molecular Endocrinology, 8:21-30).

The subject of a further assay is Ishikawa cells. In words: Ishikawa Cell Alkaline Phosphatase Assay. Type of assay: cell-based, human. The conditions noted are these: 48 h; for % Activation (Compound + 1 nM 17β-estradiol): 10^-6 M compound + 10^-9 M 17β-estradiol; for % Activation: compound alone, percent of response related to 1 nM 17β-estradiol. Here is the method:
Cells were treated for 48 h prior to assay. […] Sample population for at each dose was n=8. […] Plates are placed at -80°C for a minimum of 15 minutes. Plates are thawed at 37°C followed by the addition of 150μL of 0.1 M Tris-HCl, pH 9.8, containing 4 mM para-nitrophenylphosphate (pNPP) to each well (final concentration, 3 mM pNPP). Absorbance and slope calculations were made using the […] Application program (Bio-Tek Instruments, Inc., Winooski, VT). […] Various compounds were assayed for estrogenic activity by the alkaline phosphatase method and corresponding ED50 values (95% C.I.) were calculated. The four listed in the following were used as reference standards: A description of such methods is provided by Holinka, […]., Kuramoto, H. and Gurpide, E. (1986) Effects of steroid hormones and antisteroids on alkaline phosphatase activity in human endometrial cancer cells (Ishikawa Line). Cancer Research, 46:2771-2774, and by […]. and by […] simple and sensitive microtiter plate estrogen bioassay based on stimulation alkaline phosphatase in Ishikawa cells; […] Endocrinology, 6:2757-2762.

In the case of `Cc1c(-c2ccc(O)cc2)n(Cc2ccc(/C=C/C(N)=O)cc2)c2ccc(O)cc12` [Example 14, (E)-3-{4-[5-hydroxy-2-(4-hydroxy-phenyl)-3-methyl-indol-1-ylmethyl]-phenyl}-acrylamide], on estrogen receptor [1], the “Estrogen Receptor Affinity (reported as RBA: 17β-estradiol=100)” value stood at 32. Moreover, at estrogen receptor [2], the “% Activation with 1 nM 17β-estradiol” value stood at 57% and the “% Activation” value is given as 19%. In the assay with Ishikawa cells, the “% Activation (Compound + 1 nM 17β-estradiol)” value was determined as 14% and the “% Activation” value is reported as 2%.
The like results for `Cc1c(-c2ccc(O)cc2)n(Cc2ccc(C#CCN3CCCCC3)cc2)c2ccc(O)cc12` [Example 22, 2-(4-Hydroxy-phenyl)-3-methyl-1-[4-(3-piperidin-1-yl-prop-1-ynyl)-benzyl]-1H-indol-5-ol] were, in that order, 23, 19%, 17%, 23% and 27%.
